Experimental data: patent US12324858B2, “Pharmaceutical formulation and system and method for delivery” (Rilento Pharma, LLC, priority 2018, dated 2025)
“Also recorded” adds a separate entry of the source. Counter-ions that a name gives are not always drawn.

Assays:
[1] = Background UV spectra of individual ingredients in pH-2 water; format: physicochemical
Source text: Using the same instrument parameters and cuvettes, spectra were also acquired for each individual ingredient in the mixtures for the purpose of determining background contributions to the overall absorbance spectra that were obtained for the fully formulated mixtures. […] In this way, the background experiments were representative of the highest degree of spectral background contribution that might be potentially observed for the fully formulated devices if the devices were to completely disintegrate and dissolve during the water-soak experiment.
BUP-HCl is known to be a strong chromophore with a documented UV absorption maximum at 262 nm (Corciova, A., Eur. Chem. Bull., 2012, 2(8), 554-557).

[2] = Suspension test of candidate liquids with GLBG (gelation); format: physicochemical; settings: for Gelation of GLBG suspended in the liquid: 2/1 w/w liquid to GLBG, monitoring window 0-24 and 0-48 hours; for Suitable for use in a hydrophilic device / Suitable for use in a hydrophobic device: suspension test with GLBG
Experimental: The suspensions are then qualitatively monitored as a function of time for physical changes, such as the onset of gelation, by using any one of a variety of possible qualitative or quantitative techniques. Note that other liquid to gelatin ratios can also be employed, including ratios that are intended for use in various end-applications. […] Monitoring times of suspensions can include various time points after the suspensions are mixed, including for example, 5 minutes after mixing, 0.5 hours after mixing, 1 hour after mixing, 5 hours after mixing, 24 hours after mixing, 48 hours after mixing, 1 week after mixing, 1 month after mixing, 6 months after mixing, 1 year after mixing, and even 2 to 5 years after mixing. […] Of course, quantitative measurements can also be employed if so desired (e.g., Brookfield viscosity, parallel plate dynamic mechanical techniques, etc.). […] Conversely, if there are signs of gelation, including for example, any one or more of the following responses before the end of the monitoring time window: 1) development of elastic recovery; 2) visualization of permanent coalescence of gelatin particulates; or 3) solid network formation with loss of pourability, then these liquids are by definition excluded as candidates for use in more hydrophobic formulations, and are instead considered as candidate liquids for use in preparing more hydrophilic formulations. […] A spatula was used to stir the ingredients to create a suspension. The suspensions were then allowed to set under static conditions and were qualitatively monitored as a function of time. Results at t=5 minutes after mixing, t=0.5 hours after mixing, t=5 hours after mixing, t=24 hours after mixing, and at t=48 hours after mixing were reported. The tests were conducted at 20 degrees C. with one exception, one of the tests was conducted at 27 degrees C. to ensure that the carrier was above its melt point and in its liquid state.

[3] = mineral oil estimated, cited from earlier work; for HANtotal: Hansen Solubility Parameter, total; for HAN δDispersion / HAN δH-bonding / HAN δPolar: Hansen

Molecule | Gelation of GLBG suspended in the liquid [2] | Suitable for use in a hydrophilic device [2] | Suitable for use in a hydrophobic device [2] | HAN δDispersion [3] [MPa^1/2] | HAN δH-bonding [3] [MPa^1/2] | HAN δPolar [3] [MPa^1/2] | other results
CCCCN1CCCCC1C(=O)Nc1c(C)cccc1C (stereo not shown) [BUP free base, bupivacaine] |  |  |  |  |  |  | Relative Absorbance at 270 nm at t = 24 hrs. ([1]; individual ingredient in pH-2 water, background UV spectrum): > or = 4 (i.e.,; Solubility in water ([1]; water): low solubility in water
CCCCN1CCCCC1C(=O)Nc1c(C)cccc1C (stereo not shown) [BUP-HCl, bupivacaine] |  |  |  |  |  |  | Solubility in pH-2 water ([1]; mildly acidic conditions, pH-2 water (dilute HCl)): completely soluble under these conditions
OCC(O)CO [Glycerin] | lead to gelation of gelatin | Yes | No |  |  |  | Gelation of GLBG suspended in the liquid ([2]; listed as glycerin): work time window prior to the onset of gelation was observed to be significantly longer
OCC(O)CO [Glycerol] |  |  |  | 17.4 | 29.3 | 12.1 | HANtotal [3]: 36.2 MPa^1/2; HSP ([3]; Hildebrand Solubility Parameter): 33.8 MPa^1/2
water | lead to gelation of gelatin; also recorded: gelation and elastic network formation was observed to begin almost immediately | Yes | No | 15.5 | 42.4 | 16.0 | 

Continued, in another order:

Gelation of GLBG suspended in the liquid [2] | Suitable for use in a hydrophilic device [2] | Suitable for use in a hydrophobic device [2] | Molecule | HAN δDispersion [3] [MPa^1/2] | HAN δH-bonding [3] [MPa^1/2] | HAN δPolar [3] [MPa^1/2] | other results
no signs of gelation | No | Yes | CCCCCCCC(=O)OCC(COC(=O)CCCCCCC)OC(=O)CCCCCCC [caprylic triglyceride] | 16.2 | 4 | 3.4 | HANtotal [3]: 17.0 MPa^1/2
no signs of gelation | No | Yes | CCCCCCCCCCCCCCCC(=O)OC(C)C [isopropyl palmitate] |  |  |  | 
